In experiment [1] the test system is isolated rat bladder strips. In words: Isolated rat bladder strip contraction. As to conditions: strips precontracted with 20 mM KCl; for antagonism of the effects of retigabine on bladder strip contractions: 10 μM antagonist. The procedure: Male Sprague-Dawley rats (200–400 grams) are euthanized by CO2 inhalation and exsanguination. Their urinary bladders are rapidly removed and placed in […] physiological salt solution (PSS) that contained the following (mM): NaCl (118.4), KCl (5), CaCl2 (2.5), MgSO4 (1.2), KH2PO4 (1.2), NaHCO3 (24.9) and D-glucose (11.1) gassed with O2/CO2 (95% /5%) to achieve a pH of 7.4. The dome of the bladder is isolated from the trigon region and this tissue is then cut into 4–5 mm wide by 10 mm long strips. One end is secured to the bottom of a water jacketed tissue bath and the other to a GRASS isometric force transducer (Grass Instruments, Quincy, Mass.). Tissues are pretensioned (0.25 to 0.5 grams), and after 30 minutes of equilibration are contracted with an additional 15 mM KCl (total of 20 mM) and again allowed to equilibrate until the preparations are contracting steadily. Any of a variety of compounds are administered directly into the tissue baths as sequential concentrations. Transducer signals are digitized (12 bit resolution) and analyzed on-line using a 586-based computer and custom software. The area under the contraction curve (AUC) is used as a measure of contractility since the spontaneous bladder contractions are irregular in amplitude and frequency. A 5-minute AUC value is taken 30 minutes after administration of each compound concentration to the tissue bath.
We isolated rat bladder strips from male Sprague-Dawley rats as previously described, (Wojdan, A., Freeden, C., Woods, M., Oshiro, G., Spinelli, W. et al., J Pharmacol Exp Therap 289: 1410–1418 (1999)) and precontracted them with 20 mM KCl. The KCNQ channel agonist retigabine, was added to the tissue bath in increasing concentrations, and area under the contraction curve was analyzed.
In another study, isolated rat bladder strips were precontracted with 60 mM KCl (FIG. 1).
The difference in IC50s between 20 and 60 mM KCl depolarizations are consistent with a potassium channel opening mechanism.
Rat bladder strips were isolated and prepared as previously described (Wojdan, A., Freeden, C., Woods, M., Oshiro, G., Spinelli, W. et al., J Pharmacol ExpTherap 289:1410–1418 (1999)). Preparations were contracted with either 20 or 60 mM KCl, or 200 nM carbachol. A five minute area under the contraction curve was acquired 20 minutes after addition of each concentration of retigabine using a 12 bit D/A and a 586 based personal computer running custom software. Message for KCNQ subunits was probed using quantitative rtPCR on an ABI PRISM 7700 Sequence Detection System (TAQMAN). Forward and reverse primers and TAQMAN probes were designed using published RNA sequences for human KCNQ1–5 and rat KCNQ 1–4 listed within the NCBI data base. Since no rat sequence for KCNQ5 were currently published, probes and primers were designed by BLAST analysis of rat Expressed Sequence Tags (EST) using the known mouse KNCQ5 sequence. From homologous EST sequences, a contiguous sequence of 384 base pairs was constructed. Probes and primers were designed against this sequence. BLAST analysis of our rat KCNQ5 probes and primer were selective for mouse and human KCNQ5 sequences. PCR products were confirmed by gel electrophoresis (data not shown). Cells for electrophysiology were prepared from rat bladder smooth muscle as previously described (Wojdan et al., 1999). Human bladder smooth muscle cells were obtained from Clonetics, San Diego, Calif. […]

The test system of experiment [2] is isolated rat bladder smooth muscle cell. Nature of the experiment: Voltage clamp recording of outward current, rat cells. It counts as cell-based. The source says:
(§1) Rat detrusor cells are isolated in a manner previously described for guinea-pig detrusor (Sheldon J H, Norton N W and Argentieri T M (1997) Inhibition of guinea pig detrusor contraction by NS-1619 is associated with activation of BKCa and inhibition of calcium currents. J Pharmacol Exp Thera 283(3): 1193–1200). Male Sprague-Dawley rats (Charles River, Wilmington, Mass.; 200–400 grams) are euthanized by CO2 inhalation and exsanguination. Their urinary bladders are rapidly removed and placed in 37° C. physiological solution with the following composition (mM): Na glutamate (80.0), NaCl (54.7), KCl (5.0), NaHCO3 (25.0), MgCl2.2H2O (2.5), D-glucose (11.8) and CaCl2 (0.2) gassed with O2—CO2, 95%/5% for a final pH of 7.4. The dome of the bladder is isolated from the trigone region and the mucosa is removed. This tissue is then cut into 2–3 mm wide strips and placed into fresh buffer for 1 hour. Tissues are then transferred into 10 ml of an isolation buffer containing the above composition plus collagenase type VIII (1.0 mg/ml) and pronase (0.25 mg/ml). After 10 minutes the isolation buffer is replaced with fresh isolation buffer for an additional 10 min. The tissue is then washed 3 times in fresh collagenase and pronase free solution and stored at room temperature until studied. Cells for study are prepared by triturating 1–2 pieces of detrusor tissue in 2 ml of fresh isolation buffer for 5 minutes with a polished Pasteur pipette, (tip diameter ˜1.5 mm) attached to a modified Harvard Respirator pump (Harvard Apparatus, Southnatic, Mass.) at a rate of 20×/min. with an approximate volume of 5 ml. Cells are then placed on a microscope stage in a temperature regulated tissue bath at 32.5° C. and continually superfused with PSS.
(§2) Single cell recordings are performed with a List-Medical EPC-7 patch clamp amplifier (Adams & List Assoc., Westbury, N.Y.). Pipette electrodes had tip resistances of 2–4 MΩ and are filled with the following composition (mM): KCl (126.0), MgCl2.6H2O (4.5), ATP Mg salt (4.0), GTP tris salt (0.3), creatine PO4 (14.0), D-glucose (9.0), EGTA (9.0), HEPES (9.0). The pH is adjusted to 7.4 with KOH. Signals are acquired (3 kHz high frequency cut-off, 12 bit resolution) using a 586-based personal computer.
Whole cell recordings are made using broken patch access. Currents are evoked using either voltage steps (Vh=−50; Vt=−60 to 40 mV) or voltage ramps (−60 to 40 mV at 3.3 mV/sec.). The exact voltage clamp protocols are well known in the art. After stability is achieved control currents are recorded. Next, test compound is added to the superfusate. Currents are recorded for 5 to 10 minutes or until compound effects reach steady state. This is followed either by washout or addition of antagonists (linopirdine, XE-991) to the superfusate. […]

Experiment [3] deals with cultured human bladder smooth muscle cells. In words: Voltage clamp recording of outward current, human cells. It counts as cell-based. The settings on record: XE-991 (10 μM in FIG. 3d). The procedure: as §2
Whole cell recordings are made using broken patch access. Currents are evoked using either voltage steps (Vh=−50; Vt=−60 to 40 mV) or voltage ramps (−60 to 40 mV at 3.3 mV/sec.). The exact voltage clamp protocols are well known in the art. After stability is achieved control currents are recorded. Next, test compound is added to the superfusate. Currents are recorded for 5 to 10 minutes or until compound effects reach steady state. This is followed either by washout or addition of antagonists (linopirdine, XE-991) to the superfusate.
Cellular electrophysiological studies were conducted using both voltage and current clamp techniques (Hammill, O., P., Marty, A., Neher, E., Sakmann, B. & Sigworth, F. J.: Improved patch-clamp techniques for high-resolution current recordings from cells and cell-free membrane patches. Pflugers Arch 391: 85–100 (1981)) from Sprague-Dawley rat (200–400 grams) bladders as previously described, (Wojdan, A., Freeden, C., Woods, M., Oshiro, G., Spinelli, W. et al., J. Pharmacol Exp Therap 289: 1410–1418 (1999)) and from a human bladder, primary cell culture (Colnetics, San Diego, Calif.). In rat cells, the average, control resting membrane potential (RMP) was −29.0±4.5 mV. […]
Rat bladder strips were isolated and prepared as previously described (Wojdan, A., Freeden, C., Woods, M., Oshiro, G., Spinelli, W. et al., J Pharmacol ExpTherap 289:1410–1418 (1999)). […] Message for KCNQ subunits was probed using quantitative rtPCR on an ABI PRISM 7700 Sequence Detection System (TAQMAN). […]

The test system of experiment [4] is isolated rat bladder smooth muscle cell. In words: Current clamp recording of resting membrane potential, rat cells. It counts as cell-based.
Text: as §1, §2
Cell resting membrane potential (RMP) is measured in current clamp using the above mentioned instrumentation and pipette solutions. For these experiments nystatin is also added to the pipette solution (100 μg/ml) to allow recording through utilization of the perforated patch technique (Korn, et al, 1991). […] After this time, various antagonists (linopirdine, XE-991) are added to the perfusate and RMP is recorded for an additional 5 minutes. […]

Four compounds from patent US7160684B2, “Methods of selecting compounds for modulation of bladder function” (Wyeth, priority 2000, dated 2007) can be followed below.

For the compound `COc1ccc(Cl)cc1C(=O)NCCc1ccc(S(=O)(=O)NC(=O)NC2CCCCC2)cc1` [glyburide], in experiment [1] (glyburide 10 μM), the “reversal of the effects of retigabine on bladder strip contractions” value is “not reversed”.
In the case of `O=C1c2ccccc2C(Cc2ccncc2)(Cc2ccncc2)c2ccccc21` [XE-991, 10,10-bis(4-pyridinylmethyl)-9(10H)-anthracenone], the “antagonism of the effects of retigabine on bladder strip contractions” value in experiment [1] is given as 94.8±17.5%. The “reversal of retigabine-induced increase in outward current” value in experiment [2] (XE-991 10 μM) was “partially reversed”. The “reversal of retigabine-induced changes (hyperpolarization, outward current)” value in experiment [3] is “partially reversed”. Also, the “reversal of retigabine-induced hyperpolarization” value in experiment [4] (10 μM XE-991 after 10 μM retigabine) was “completely reversed”. The “effect on membrane potential relative to initial RMP” value in experiment [4] (10 μM XE-991 after retigabine) was “depolarized the cell below its initial RMP”.
As to `O=C1N(c2ccccc2)c2ccccc2C1(Cc1ccncc1)Cc1ccncc1` [linopirdine], the “antagonism of the effects of retigabine on bladder strip contractions” value in experiment [1] was found to be 94.8±17.5%. Further, the “reversal of retigabine-induced increase in outward current” value in experiment [2] (linopirdine 50 μM) is “partially reversed”.
As for “iberiotoxin (QFTDVDCSVSKECWSVCKDLFGVDRGKCMGKKCRCYQ; UniProt P24663 1-37, looked up)”, in experiment [2] (100 nM iberiotoxin), the “sensitivity of retigabine-induced increase in outward current to blocker” value is “not sensitive”.
